# Results published in patent US20220062299A1, “USE OF GLUCOCORTICOID STEROIDS IN PREVENTING AND TREATING CONDITIONS OF MUSCLE WASTING, AGING AND METABOLIC DISORDER” (NORTHWESTERN UNIVERSITY, priority 2018, published 2022).
# System: mdx mice
# Assay: Dosing of metabolic and endocrine biomarkers in blood, serum and tissues, mdx mice, long-term (40 weeks) weekly prednisone
# Assay type: in vivo
# Experimental: Animal handling and steroid regimens. Mice were housed in a pathogen-free dedicated vivarium in accordance with Institutional Animal Care and Use Committee (IACUC) guidelines. Euthanasia was performed through carbon dioxide inhalation followed by cervical dislocation and heart removal. All methods using living animals in this study were performed in ethical accordance with the American Veterinary Medical Association (AVMA) and under protocols fully approved by both the Institutional Animal Care and Use Committee (IACUC) at Northwestern University Feinberg School of Medicine (protocol number ISO00000761). Consistent with the ethical approvals, all efforts were made to minimize suffering. Mice were fed ad libitum with Mouse Breeder Sterilizable Diet (#7904; Harlan Teklad, Indianapolis, Ind.) and maintained on a 12-hour light/dark cycle. mdx mice from the DBA/2J background were obtained from the Jackson Laboratory (Bar Harbor, Me.; stock #013141) and interbred. Male mice were used for reported experiments. Age at start was approximately 6 months for short-term experiments, approximately 6 weeks for long-term experiments. Dysferlin-null (Dysf-null) mice from the 129T2/SvEmsJ background were previously characterized (Demonbreun et al., 2011; Demonbreun et al., 2014). Age at start was approximately 9 months for long-term experiments. For experiments with Dysf-null and wildtype mice, both females and males (approximately 1:1 ratio) were randomized in treatment groups. […] Dosing was based on weekly weight measurements (1 mg/kg body weight, (Sali et al., 2012)) in 100 μl total PBS volume per dose. Mice were injected daily via intraperitoneal injection at 7 AM. On injection days, stock solutions stored at −20° C. were diluted into sterile Eppendorf tubes containing sterile phosphate buffered saline (PBS) (#14190; Thermo Fisher, Waltham, Mass.). Puromycin (cat #A1113803, Thermo Scientific, Waltham, Mass.) was administered i.p. as 0.040 μmol/body g, and tissues were snap-frozen 30 minutes after injection. Sterile BD Micro-Fine IV Insulin Syringes (#14-829-1A; Fisher Scientific, Waltham, Mass.) were used to inject the intraperitoneal cavity of non-sedated animals. All animal analyses both during treatment and at endpoint were conducted blinded to treatment groups.
# Dosing of metabolic and endocrine biomarkers. Glycogen was quantitated using the Glycogen Assay Kit (#ab65620; Abcam, Cambridge, Mass.) from approximately 25 mg frozen-pulverized whole tissue, following manufacturer's instructions and internal standards for calculating μg/mg values. For measurement of whole-tissue ATP/NAD^+ levels, approximately 25 mg frozen-pulverized tissue was extracted in 10% perchloric acid and neutralized in 0.75 M K2CO3, as previously described (Ramsey et al., 2009). NAD+ and ATP were measured by high-pressure liquid chromatography (HPLC) with Shimadzu LC-20A pump (Shimadzu Scientific Instr Inc, Addison, Ill.) and UV-VIS detector, using a Supelco LC-18-T column (15 cm×[…]; #58970-U; Millipore-Sigma, St Louis, Mo.). […] ATP and NAD^+ eluted as sharp peaks at 3 and 14 minutes, respectively, and were normalized to tissue weight of frozen liver tissue for calculating pmol/mg values. Corticosterone was measured in mouse serum and cortisol was measured in human serum using dedicated ELISA kits (#ADI-900-097, Enzo Life Science, Farmingdale, N.Y.; #K7430-100, BioVision, Milpitas, Calif.) according to manufacturer's instructions and internal standards to calculate ng/ml values. Insulin levels were quantitated in mouse and human serum with species-specific ELISA kits (#10-1247-01 (mouse-specific); #10-1113-01 (human-specific); Mercodia, Uppsala, Sweden), following manufacturer's instructions and internal standards to calculate ng/ml values. Free fatty acids were quantitated using Enzychrom Free Fatty Acid Assay kit (#EFFA-100; BioAssay Systems, Hayward, Calif.), following kit's instructions and standards to calculate μM (serum) and nmol/mg (tissue) values.
compound,measurement,setting,value
"C[C@]12C=CC(=O)C=C1CC[C@@H]1[C@@H]2C(=O)C[C@@]2(C)[C@H]1CC[C@]2(O)C(=O)CO [prednisone, Prednisone]",blood glucose,,no change
same,serum BCAA,mean ± s.e.m,462 ± 7.32 µM
same,serum corticosterone,mean ± s.e.m,133 ± 8.36 ng/mL
same,serum creatine kinase,mean ± s.e.m,3.1 ± 0.16 U/ml
same,serum free fatty acids,mean ± s.e.m,547 ± 10.4 µM
same,serum insulin,mean ± s.e.m,1.51 ± 0.14 ng/mL
same,serum β-hydroxybutyrate,mean ± s.e.m,372 ± 5 µM
same,"tissue BCAA, diaphragm",mean ± s.e.m,49.4 ± 2.14 nmol/mg
same,"tissue BCAA, heart",mean ± s.e.m,1.74 ± 0.08 nmol/mg
same,"tissue BCAA, omental fat",mean ± s.e.m,23.5 ± 0.43 nmol/mg
same,"tissue BCAA, quadriceps",mean ± s.e.m,95.3 ± 3.21 nmol/mg
same,"tissue free fatty acids, heart",mean ± s.e.m,0.211 ± 0.01 nmol/mg
same,"tissue free fatty acids, omental fat",mean ± s.e.m,3.91 ± 0.12 nmol/mg
same,"tissue free fatty acids, quadriceps",mean ± s.e.m,0.752 ± 0.05 nmol/mg
same,"tissue β-hydroxybutyrate, diaphragm",mean ± s.e.m,12.9 ± 0.89 nmol/mg
same,"tissue β-hydroxybutyrate, heart",mean ± s.e.m,20.2 ± 0.51 nmol/mg
same,"tissue β-hydroxybutyrate, omental fat",mean ± s.e.m,23 ± 1.71 nmol/mg
same,"tissue β-hydroxybutyrate, quadriceps",mean ± s.e.m,24.7 ± 1.58 nmol/mg
